Like-named read-outs stand apart in the source and are kept apart here.
Columns and labels:
[1] = ADME solubility determination at pH 2.0 and pH 7.4; type: physicochemical; details: aqueous buffer, thermodynamic from solid, LC-MS/MS
Experimental: Certain Compounds of the Disclosure were assessed for ADME solubility at pH 2.0 and pH 7.4.
Stock solutions were prepared by adding each compound to DMSO at a concentration of 10 mM. Samples were prepared by adding 50 μL of each stock solution to separate vials. The vials were loaded onto a 96-well rack and dried. 500 μL of Phosphate Buffered Saline (PBS) pH 7.4 or PBS pH 2.0 were added into each vial. The vials were then shaken at 25° C. and 1,100 rpm for 24 hours.
After 24 hours, the vials were centrifuged at 3220 G and 25° C. for 30 minutes. The supernatant fluid was analyzed by LC-MS/MS against a standard of known concentration. The solubility of each sample was then calculated using the equation below:
[formula] where DF is the dilution factor.

[2] = Liver microsomal stability, rat liver microsomes; type: in vitro ADME; details: 1 μM compound, NADPH, read-out: t1/2 (min) in RLM
Experimental: (§1) Certain Compounds of the Disclosure were assessed for ADME metabolic stability in human liver microsomes (HLM) and rat liver microsomes (RLM).
(§2) Samples were prepared by adding 222.5 μL of a master solution (100 mM phosphate buffer and 1 mg/mL liver microsomes (HLM or RLM)) and 25 μL of a 10 mM NADPH solution to incubation plates, which were then warmed for 10 min. Each compound was separately dissolved in DMSO to prepare 10 mM stock solutions, which were then diluted to 100 μM with acetonitrile. A reaction was started by adding 2.5 μL of the 100 μM solution of each compound to separate incubation plates such that the final concentration of for each compound in each plate was 1 μM.
(§3) 25 μL aliquots of each sample were taken at 0.5, 5, 10, 15, 20 and 30 minutes, and the reaction was stopped by adding 5 volumes of cold acetonitrile with IS (100 nM alprazolam, 200 nM caffeine and 100 nM tolbutamide). The samples were then centrifuged at 3,220 G for 30 minutes, and 100 μL of the supernatant fluid was mixed with 100 μL of ultra-pure H2O.
(§4) The samples were then analyzed by LC-MS/MS. Peak areas were determined from extracted ion chromatograms. Slope values (k) were determined by linear regression of the natural logarithm of the remaining percentage of the compound vs. incubation time curve. […] The in vitro half-life (min) was converted into the in vitro intrinsic clearance (in vitro CLint, in μL/min/mg protein) using the following equation: […]

[3] = Liver microsomal stability, human liver microsomes; type: in vitro ADME; details: 1 μM compound, NADPH, read-out: t1/2 (min) in HLM
Experimental: as §1, §2, §3, §4

[4] = PBS pH 2.0, shaken at 25° C. for 24 hours, read-out: Solubility at pH 2.0
[5] = PBS pH 7.4, shaken at 25° C. for 24 hours, read-out: Solubility at pH 7.4

Row | Structure (SMILES) | solubility at 24 h [1, 4] | solubility at 24 h [1, 5] | half-life at 1 μM [2] | half-life at 1 μM [3] | solubility at 24 h ([1]; phosphate buffered saline, PBS pH 2.0, shaken at 25° C. for 24 hours, read-out: Solubility at pH 2.0) | solubility at 24 h ([1]; phosphate buffered saline, PBS pH 7.4, shaken at 25° C. for 24 hours, read-out: Solubility at pH 7.4)
1 | COc1ncnc(C2CC2)c1-c1ncc2cnn(Cc3ccc(-c4nc(C(F)(F)F)cn4C4CC4)cc3)c2n1 [Example 154, 1-(4-(1-Cyclopropyl-4-(trifluoromethyl)-1H-imidazol-2-yl)benzyl)-6-(4-cyclopropyl-6-methoxypyrimidin-5-yl)-1H-pyrazolo[3,4-d]pyrimidine] | < 10 µM | < 10 µM | > 25 min | > 25 min | – | –
2 | CC(C)c1ccccc1-c1ncc2cnn(Cc3ccc(-c4nc(C(F)(F)F)cn4C4CN(C)C4)cc3)c2n1 [Example 152, 6-(2-Isopropylphenyl)-1-(4-(1-(1-methylazetidin-3-yl)-4-(trifluoromethyl)-1H-imidazol-2-yl)benzyl)-1H-pyrazolo[3,4-d]pyrimidine] | > 10 µM | > 10 µM | < 25 min | < 25 min | – | –
3 | COc1ncnc(C2CC2)c1-c1ncc2c(OC)nn([C@@H](C)c3ccc(-c4nc(C(F)(F)F)c(Br)n4C)cc3)c2n1 [Example 188, (S)-1-(1-(4-(5-bromo-1-methyl-4-(trifluoromethyl)-1H-imidazol-2-yl)phenyl)ethyl)-6-(4-cyclopropyl-6-methoxypyrimidin-5-yl)-3-methoxy-1H-pyrazolo[3,4-d]pyrimidine] | < 10 µM | < 10 µM | > 25 min | > 25 min | – | –
4 | COc1ncnc(C2CC2)c1-c1ncc2cnn(Cc3ccc(-n4nc(C(F)(F)F)cc4N(C)C)c(F)c3)c2n1 [Example 122] | < 10 µM | < 10 µM | < 25 min | < 25 min | – | –
5 | CCn1cc(C(F)(F)F)nc1-c1ccc(Cn2ncc3cnc(-c4c(OC5CC5)ncnc4C4CC4)nc32)cc1 [Example 63] | > 10 µM | < 10 µM | < 25 min | > 25 min | – | –
6 | CCn1cc(C(F)(F)F)nc1-c1ccc([C@H](C)n2ncc3cnc(-c4c(OC)ncnc4C4CC4)nc32)cc1 (single isomer, unassigned) [Example 94] | > 10 µM | < 10 µM | < 25 min | > 25 min | – | –
7 | COc1ncnc(C2CC2)c1-c1ncc2cnn(Cc3ccc(-n4nc(C(F)(F)F)cc4OC)cc3)c2n1 [Example 37] | < 10 µM | < 10 µM | > 25 min | > 25 min | – | –
8 | COc1ncnc(C2CC2)c1-c1ncc2cnn(Cc3ccc(-c4nc(C(F)(F)F)nn4C)c(F)c3)c2n1 [Example 57] | > 10 µM | > 10 µM | > 25 min | > 25 min | – | –
9 | COc1ncnc(C2CC2)c1-c1ncc2nc(C3CC3)n(Cc3ccc(-n4nc(C(F)(F)F)cc4C)cc3)c2n1 [Example 213] | < 10 µM | < 10 µM | > 25 min | > 25 min | – | –
10 | CCn1c(-c2ccc(Cn3ncc4cnc(-c5c(OC)ncnc5C5CC5)nc43)cc2)nc(C(F)(F)F)c1C [Example 167, 6-(4-cyclopropyl-6-methoxypyrimidin-5-yl)-1-(4-(1-ethyl-5-methyl-4-(trifluoromethyl)-1H-imidazol-2-yl)benzyl)-1H-pyrazolo[3,4-d]pyrimidine] | > 10 µM | < 10 µM | < 25 min | < 25 min | – | –
11 | CCS(=O)(=O)c1ccccc1-c1ncc2cnn(Cc3ccc(-c4nc(C(F)(F)F)cn4C)cc3)c2n1 [Example 7, 6-(2-(ethylsulfonyl)phenyl)-1-(4-(1-methyl-4-(trifluoromethyl)-1H-imidazol-2-yl)benzyl)-1H-pyrazolo[3,4-d]pyrimidine] | < 10 µM | < 10 µM | < 25 min | > 25 min | – | –
12 | COc1ncnc(C2CC2)c1-c1ncc2cnn(Cc3ccc(-c4nc(C(F)(F)F)cn4C4COC4)cc3)c2n1 [Example 145] | > 10 µM | > 10 µM | < 25 min | > 25 min | – | –
13 | CCn1c(-c2ccc(Cn3nc(OC)c4cnc(-c5c(OC)ncnc5C5CC5)nc43)cc2)nc(C(F)(F)F)c1Br [Example 189] | < 10 µM | < 10 µM | > 25 min | > 25 min | – | –
14 | CCn1cc(C(F)(F)F)nc1-c1ccc([C@H](C)n2ncc3cnc(-c4c(OC)ncnc4C(C)C)nc32)cc1 [Example 117] | > 10 µM | > 10 µM | < 25 min | < 25 min | – | –
15 | Cc1ncnc(C(C)C)c1-c1ncc2cnn(Cc3ccc(-n4nc(C(F)(F)F)cc4C)cc3)c2n1 [Example 45] | – | – | < 25 min | < 25 min | < 10 µM | < 10 µM
16 | CCc1nc2cnc(-c3c(OC)ncnc3C3CC3)nc2n1Cc1ccc(-n2nc(C(F)(F)F)cc2C)cc1 [Example 209, 2-(4-cyclopropyl-6-methoxypyrimidin-5-yl)-8-ethyl-9-(4-(5-methyl-3-(trifluoromethyl)-1H-pyrazol-1-yl)benzyl)-9H-purine] | > 10 µM | > 10 µM | > 25 min | < 25 min | – | –
17 | COc1ncnc(C2CC2)c1-c1ncc2nc(C)n(Cc3ccc(-c4nc(C(F)(F)F)cn4C)cc3)c2n1 [Example 206] | > 10 µM | < 10 µM | > 25 min | < 25 min | – | –
18 | CCn1cc(C(F)(F)F)nc1-c1ccc(Cn2ncc3cnc(-c4c(OC)ncnc4C4CC4)nc32)cc1OC [Example 128] | > 10 µM | > 10 µM | < 25 min | > 25 min | – | –
19 | CCn1cc(C(F)(F)F)nc1-c1ccc(Cn2ncc3cnc(-c4c(OC)ncnc4C4CC4)nc32)cn1 [Example 75] | < 10 µM | < 10 µM | > 25 min | > 25 min | – | –
20 | COc1nccc(C)c1-c1ncc2cnn(Cc3ccc(-c4nc(C(F)(F)F)cn4C)cc3)c2n1 [Example 6, 6-(2-methoxy-4-methylpyridin-3-yl)-1-(4-(1-methyl-4-(trifluoromethyl)-1H-imidazol-2-yl)benzyl)-1H-pyrazolo[3,4-d]pyrimidine] | > 10 µM | < 10 µM | < 25 min | < 25 min | – | –
21 | CC(C)c1ccccc1-c1ncc2cnn(Cc3ccc(-c4nc(C(F)(F)F)cn4C)cc3)c2n1 [Example 1, 6-(2-isopropylphenyl)-1-(4-(1-methyl-4-(trifluoromethyl)-1H-imidazol-2-yl)benzyl)-1H-pyrazolo[3,4-d]pyrimidine] | < 10 µM | < 10 µM | < 25 min | < 25 min | – | –
22 | CCn1cc(C(F)(F)F)nc1-c1ccc(Cn2ncc3c(C)nc(-c4c(OC)ncnc4C4CC4)nc32)cc1 [Example 53] | < 10 µM | < 10 µM | > 25 min | > 25 min | – | –
23 | COc1ncnc(C2CC2)c1-c1ncc2cnn(Cc3ccc(-c4nc(C(F)(F)F)oc4C)cc3)c2n1 [Example 127] | < 10 µM | < 10 µM | > 25 min | > 25 min | – | –
24 | COc1ncnc(C2CC2)c1-c1ncc2nc(C(C)C)n(Cc3ccc(-c4nc(C(F)(F)F)cn4C(C)C)cc3)c2n1 [Example 208] | < 10 µM | < 10 µM | > 25 min | > 25 min | – | –
25 | COc1ncnc(C2CC2)c1-c1ncc2ncn(Cc3ccc(-n4nc(C(F)(F)F)cc4C)cc3)c2n1 [Example 210] | > 10 µM | > 10 µM | > 25 min | > 25 min | – | –
26 | COc1cc(Cn2ncc3cnc(-c4c(OC)ncnc4C4CC4)nc32)ccc1-c1cn(C)c(C(F)(F)F)n1 [Example 35] | < 10 µM | < 10 µM | > 25 min | > 25 min | – | –
27 | CCn1cc(C(F)(F)F)nc1-c1ccc(C(C)n2ncc3cnc(-c4c(OC)ncnc4C(C)C)nc32)cc1F (stereo not drawn) [Example 116] | > 10 µM | < 10 µM | < 25 min | < 25 min | – | –

Reference: patent publication US11485736B2 (KSQ Therapeutics, Inc., priority 2018, dated 2022)
